Experiment [1] concerns human RTT neurons. Kind of experiment: Membrane capacitance (Cm) of cultured human RTT neurons. Format: cell-based. The note with it: cultured human RTT neurons; vs DMSO or MeBIO control. The source says: (§1) Moreover, a reduction in the number or the strength of excitatory glutamatergic synapses in RTT neurons has been observed in postmortem RTT patient brain samples (30), mouse models of RTT (53), and human stem cell-derived RTT neurons (54). Electrophysiology recording was utilized to assess whether KEECs could rescue the deficits in EGABA and excitatory synaptic transmission of RTT neurons. […] We further investigated whether the beneficial effect of KEECs is a direct result of the increases in neuronal KCC2 gene expression. […] Deficits in a number of morphological measurements, including nuclei size and neurite complexity and branching, are hallmarks of RTT neurons (54-56). […] To validate the morphological measurements, electrophysiological measurements of the neuronal membrane capacitance (Cm), an indicator of neuronal cell size (57) that is reduced in RTT neurons, were conducted.
(§2) Functionally mature human neuron cultures were obtained by seeding human WT or isogenic RTT NPCs on a layer of primary mouse astrocyte culture as previously described (57). In the cultured WT human neurons, KCC2 expression reaches mature level between 2-3 months (7). We therefore treated the WT or RTT human neurons 8-12 weeks in culture, with compounds for a duration of two weeks before conducting whole-cell patch-clamp recording. The extracellular bath solution, that perfused the recording chamber, consists of (in mM): 120 NaCl, 30 glucose, 25 HEPES, 5 KCl, 2 CaCl2, 1 MgCl2. The pH was adjusted to 7.3 with NaOH. The high-chloride internal pipette solution consists of (in mM): 147 KCl, 5 Na-phosphocreatine, 2 EGTA, 10 HEPES, 4 MgATP, and 0.5 Na2GTP; the pH 7.3 was adjusted with KOH. To record mini EPSC, the membrane potential was held at −70 mV, and 0.5 μM of TTX and 50 μM Picrotoxin were applied with bath solution to block action potential and GABAergic synaptic transmission.

The test system of experiment [2] is human RTT neurons. Kind of experiment: mEPSC whole-cell patch-clamp recording in cultured human RTT neurons. Format: cell-based. The note with it: cultured human RTT neurons.
Excerpt: as §1, §2
To evoke GABA response, a pipette filled with 100 μM GABA solution was positioned 5-10 μm away from the neuronal cell body. Air pulses at the pressure of 10 p.s.i. and duration of 100 ms were generated with a Picrospritzer (Parker Instrumentation) to puff GABA solution onto neuronal cell body. Neuronal response to GABA puffs were recorded at different membrane holding potentials from −90 mV to +30 mV, and the EGABA values were calculated with linear regression. Electrophysiological signals were recorded with Multiclamp 700A patch-clamp amplifier and data were collected with Clamp 9 software (Molecular Devices, Palo Alto, CA), sampled at 10 kHz and filtered at 1 KHz. Off-line data analyses of mEPSC synaptic events were performed with MiniAnalysis software (Synaptosoft, Decator, GA). All experiments were performed at room temperature. A sample size of 5-8 neurons was used for EGABA measurements, while a sample size of 14-19 neurons was used for mEPSC measurements. All data were presented as mean±SEM. ANOVA test followed by the Bonferroni correction were used for statistical analysis. The Kolmogorov-Smirnov test was employed to compare the cumulative distribution between two datasets.
In general terms: The patch-clamp technique gives a direct electrical read-out from membranes.

For experiment [3], the system named is KCC2 expression. Nature of the experiment: Western blot of KCC2 in cultured WT human neurons. Format: cell-based. A general note: A western blot detects proteins with antibodies after separation by electrophoresis.
The subject of experiment [4] is KCC2 expression. Nature of the experiment: Western blot of KCC2 in organotypic mouse brain slices. Format: cell-based. The note with it: organotypic neonatal mouse brain slices, treated 7 days, vs DMSO, MeBIO or medium-only control.
Experiment [5] has as its system KCC2 expression (KCC2-2A-luciferase reporter). Kind of experiment: KCC2-2A-luciferase reporter compound screening with wild type KCC2 reporter neurons. Format: cell-based. To be noted: WT human KCC2 reporter neurons; LINCS 0.5 μM, IRSF/SMART and ICCB 10 μM, one week; Luc/CTG normalized to in-plate DMSO; hit = B score >3. The source says: In addition, CRISPR/Cas9 genome editing technology was utilized to insert a 2A-luciferase reporter gene directly before the stop codon of the endogenous KCC2 locus in human ES cells, thus creating wild type (WT) cells isogenic to the MECP2-null RTT human KCC2 reporter neurons. KCC2 expression reporter human neurons were differentiated from the gene-targeted ES cells and utilized as the substrate for unbiased compound screening (FIG. 6A; see also FIG. 1A).
Gene-targeted KCC2 reporter cells were used in a HTS pipeline to screen for small molecule compounds that enhance KCC2 gene expression (FIG. 1B; note that reporter neurons were adapted to 384 well format for some screens, and the same workflow was used both for WT KCC2 reporter neurons and RTT KCC2 reporter neurons). Six replicate screens were performed in WT KCC2 reporter neurons using the LINCS and SMART libraries as well as the ICCB known bioactive library (FIG. 6B).
(§3) The cells were dissociated with Accutase, resuspended in 10 ml neuronal differentiation medium to count cells. the final cell seeding density was 20 k-40 k cells per well for 96-well plates, and ˜10 k cells per well for 384-well plates. Matrigel was added to the cell suspension at a dilution ratio of 1:300 to promote cell adhesion after plating. AraC were added to the cell suspension at the concentration of 0.5 μM to inhibit astroglial cell division. The cells were dispensed into 96-well or 384-well plates (Coming) using a BioTek EL406 plate dispenser. […] The neurons were incubated with the compounds at 37° C./5% CO2 for a week before the luciferase assay.
For some screens, on the day of the luciferase assay, the cells were washed with PBS three times using a BioTek EL406 plate washer. Cell lysis buffer (Promega, E1941, 1:5 diluted with water) was added at a volume of 100 μl per well for 96-well plates and 30 μl per well for 384-well plates, and incubated at room temperature for 10 minutes to lyse the cells. A fraction of the cell lysate (30 ul for 96-well, 5 ul for 384-well) was transferred to a new white, opaque plate and Cell Titer-Glo (CTG, Promega, G7572, diluted 2:5 in water) was added and incubated for 20 minutes at room temperature. CTG measures cellular ATP levels as a surrogate for cell viability. The reporter luciferase signal was assayed in the original source plate using Bright-Glo reagent per the manufacturer's protocol (Promega, E1501, 10 ul for 96-well plates, 3 ul for 384-well plates). Assay readouts were performed on a Tecan M1000 Infinite plate reader. For data analysis, the luciferase signal was normalized to the CTG signal to control for number of live cells per well. The Luc/CTG ratio data were then normalized to the in-plate DMSO control to calculate the signal induction fold change. Screening data were processed with CellHTS2 software package to calculate B-score (94)
Background: A reporter such as luciferase makes a cellular process visible.

Experiment [6] has the same test system. Nature of the experiment: KCC2-2A-luciferase reporter compound screening with RTT KCC2 reporter neurons. To be noted: MECP2-null RTT human KCC2 reporter neurons; LINCS, SMART, ICCB libraries; Luc/CTG normalized to in-plate DMSO; hit = B score >3. Type of experiment: cell-based, human. As for the experimental part:
The RTT KCC2-2A-luciferase reporter neurons were treated with the test compounds from the LINCS kinase inhibitor library and IRSF SMART compound library and incubated before being lysed. The cell lysate was divided into two parts to measure luciferase signal (KCC2 translation) and Cell-Titer Glow (CTG, amount of ATP). The luciferase signal was normalized to CTG for each well, and the Luc/CTG ratio was normalized to the in-plate DMSO negative control to calculate fold change ratio.
Additional screens for reporter activation in the MECP2-null RTT human KCC2 reporter neurons (isogenic to the WT reporter cells used above) were performed with the LINCS and SMART libraries as well as the ICCB known bioactive library and identified hits as compounds with B score >3.
The cells were dissociated with Accutase and resuspended in 10 ml neuronal differentiation medium to count cells. The cells were then diluted to the final density of 200,000 to 500,000 cells/ml. Matrigel was added to the cell suspension at a dilution ratio of 1:300 to promote cell adhesion after plating. AraC was added to cell suspension at the concentration of 2 μM to inhibit cell division. The cells were plated into 96-well plates with an automated cell seeding machine using the following protocol: The neuron flask was washed with PBS. The neurons were digested off the plate with Accutase for 30 minutes at 37° C. Next, the dissociated cells were collected and spun down at 750 rpm for 5 minutes. The cell pellet was dissociated by gentle trituration with P1000 pipet and the cells were resuspended with 10 ml of neuronal medium. Then, the cells were filtered through a 40 μm cell strainer (Falcon) to get rid of clumps. The resulting single-cell suspension was counted using a Countess automated cell counter (Invitrogen Countess Automated Cell Counter, Catalog no. C10227). The neurons were resuspended with neuronal medium to 10× of the destination density (100,000 cells to 400,000 cells per ml). The cells were plated with a multichannel pipette, or proceeded to the machine-plating protocol described below:
The day after cell seeding, small molecule compounds from the IRSF (International Rett Syndrome Foundation) library were prepared at a concentration of 1 mM and dispensed into a blank V-bottomed test plates at 2 μl per well. Compound solvent DMSO was included in every plate as control. Using a liquid handling robot, about 80 μl of culture medium were discarded. Neuronal medium in the volume of 200 μl was added to the V-bottom test plate that contained 2 μl of 1 mM compounds, and mixed with compounds by pipetting up-and-down 3 times. The medium that contained the 10 μM compounds was then applied to the neuronal cell culture and incubated for 2 weeks before cell lysis and luciferase assay were performed.
as §3
The cells used for luciferase assay were KCC2 reporter neurons differentiated for 4 weeks, and treated with drug in 96-well format for 2 weeks. Cell density was between 20 k-40 k cells per well.
On the day of the luciferase assay, the cells were washed with PBS for two times, and 100 μl of cell lysis buffer was applied to the washed cells. The cell plates were transferred to a rocker to shake for 10 minutes in order to fully lyse the cells.

For experiment [7], the system named is KCC2 expression. Nature of the experiment: Western blot of KCC2 in cultured human RTT neurons. To be noted: cultured human RTT neurons; Western blot. Type of experiment: cell-based. Here is the method: Protein samples were collected from cultured brain slices or cultured neurons in 12-well format with RIPA lysis buffer (in mM: 150 NaCl, 25 Tris-HCl, 1 EDTA, 1% NP-40, 1% sodium deoxycholate, 0.1% SDS, with protein kinase inhibitor and protease inhibitor, pH adjusted to 7.6). A sonication step was applied to homogenize tissue and extract protein, followed by a 10 minute centrifugation at 4° C. […] The PVDF membrane was blocked for 30 minutes with 5% milk in TBS+0.1% Tween 20 (TBST), and incubated overnight at 4° C. with primary antibodies diluted in TBST-milk at the following concentrations: KCC2 (1:2000, Millipore), NKCC1 (1:1000, Iowa Hybridoma bank), α-Tubulin (1:4000, Abcam), GAPDH (1:3000, Abcam), Actin (1:2000, Sigma Aldrich #A2066). The membrane was rinsed with TBST three times to wash off excess antibodies, and then incubated in secondary HRP antibodies in TBST-milk at 1:5000 concentration.
The PVDF membrane was then stripped using the Re-blot plus strong solution (Millipore), and re-immunoblotted for NKCC1 (˜150 kDa) to acquire KCC2/NKCC1 ratio. The area and intensity of protein signal was determined using ImageJ. The relative KCC2 and NKCC1 expression were calculated by normalizing protein signal to GAPDH or Tubulin loading control.

The subject of experiment [8] is immature mouse neurons. Nature of the experiment: Gramicidin-perforated patch recording of EGABA in DIV6-7 immature mouse neurons. Format: cell-based.

With `CN1C(=O)/C(=C2\Nc3ccccc3\C2=N/O)c2ccc(Br)cc21` [MeBIO], the “membrane capacitance (Cm)” value in experiment [1] was “failed to change Cm”. In experiment [2], the “frequency of mEPSCs” value is on record as “failed to rescue synaptic deficits in RTT neurons”. The KCC2 expression entry in experiment [3] (cultured WT human neurons (WIBR1), Western blot) is “failed to activate KCC2 expression”. Also, the KCC2 protein level entry in experiment [4] was “does not alter KCC2 expression”.

As to `COC1=CC(=O)O[C@@H](/C=C/c2ccc3c(c2)OCO3)C1` [Methysticin, (2R)-2-[(E)-2-(1,3-Benzodioxol-5-yl)ethenyl]-4-methoxy-2,3-dihydropyran-6-one], the “B Score” value in experiment [5] and in experiment [6] was 7.17 throughout.

For the compound `COCc1nc2c([nH]1)c(=O)n(C)c(=O)n2CC(C)C` [8-methoxymethyl-IBMX, 8-(Methoxymethyl)-1-methyl-3-(2-methylpropyl)-7H-purine-2,6-dione], the “B Score” value in experiment [5] and in experiment [6] was 4.8 in each case.

Take `O=C1Nc2ccccc2/C1=C1/Nc2ccccc2C1=O` [Indirubin, (3Z)-3-(3-Oxo-1,3-dihydro-2H-indol-2-ylidene)-1,3-dihydro-2H-indol-2-one]: the “B Score” value in experiment [5] and in experiment [6] was 3.73 each time.

Regarding `Nc1cccc(-c2cc3c(Oc4cccc(O)c4)ncnc3[nH]2)c1` [TWS-119, 3-[6-(3-Amino-phenyl)-7H-pyrrolo[2,3,-d]pyrimidin-4-yloxy]-phenol], the KCC2 expression entry in experiment [7] is listed as “significant increase in KCC2 expression”. Also, the “increase of KCC2 expression” value in experiment [3] (WT neurons, 0.03 μM) was “more than two-fold”. In experiment [6], the “B Score” value came out at 3.64. Besides, the EGABA after treatment entry in experiment [8] (DIV6-7 immature mouse neurons, untreated about −50 mV) is on record as “about −70 mV”. Moreover, the “significant hyperpolarizing shift in EGABA” value in experiment [8] (DIV6 cultured immature mouse neurons) was “induces significant hyperpolarizing shift in EGABA”.

Turning to `COc1cc2c(Oc3ccc(NC(=O)C4(C(=O)Nc5ccc(F)cc5)CC4)cc3F)ccnc2cc1OCCCN1CCOCC1` [Foretinib, N1′-[3-fluoro-4-[[6-methoxy-7-(3-morpholinopropoxy)-4-quinolyl]oxy]phenyl]-N1-(4-fluorophenyl)cyclopropane-1,1-dicarboxamide], the “B Score” value in experiment [5] and in experiment [6] was 4.05 each time.
